Laboratory results published in US20240122956A1, “Application of Naringin Combined with Rapamycin in Preparation of Medications for Treating Hyperlipidemia” (AIR FORCE MEDICAL UNIVERSITY, priority 2023, published 2024).

Tests used:
[1] = tested on: hyperlipidemia model Ldr1−/− (C57BL/6J) mice; assay: lipid accumulation / lesions in carotid arteries, aortic roots and liver of hyperlipidemic mice (Oil Red O); type: in vivo; details: high-fat diet 16 weeks, naringin 20 mg/kg daily intraperitoneal, RAPA 40 mg/kg in diet
From the text: To evaluate the synergistic therapeutic effects of naringin and rapamycin on hyperlipidemia mice (FIG. 4), a hyperlipidemia model was established using Ldr1^−/− (C57BL/6J) mice. […] Subsequently, mouse serum, tissues of carotid arteries, liver, and aortic root were collected for analysis. Assessment of Lesions in Carotid Arteries, Aortic Roots, and Liver Tissues: Carotid arteries, hearts, and livers of mice were dissected, fixed overnight with 4% PFA, and carotid arteries were stained with Oil Red O after gently removing adherent (outer membrane) fat and flattening them from the carotid arteries. The stained aortas were placed on anti-fall-off slides, fully unfolded, and images were captured using a high-resolution camera. Hearts and livers were embedded in OCT tissue, and 7-10 μm thick continuous sections were collected. Staining was performed with Oil Red O and hematoxylin and eosin. Stained sections were analyzed using an optical microscope. ImageJ (version 2.10) was used for quantitative analysis of the images. Lesion areas were assessed according to the percentage of Oil Red 0-positive areas in the total sampled area.

[2] = tested on: oxidized high-density lipoprotein (oxHDL); assay: drug screening among 200 natural products for neutralizing oxLp: affinity and surface charge, oxHDL; type: binding
From the text: (§1) This unregulated process of lipid accumulation and inflammatory reaction, induced by oxLp-NLRP3 complexes, accelerates the progression of hyperlipidemia. Considering the role of oxLp-NLRP3 complexes in the progression of hyperlipidemia, a drug screening technique was employed to search for potential compounds among 200 natural products with the aim of neutralizing oxLp. […] Therefore, naringin was selected for further investigation.

oxLDL-NLRP3 complexes = assay: formation of oxLDL-NLRP3 complexes in THP-1 cells (fluorescence imaging); type: cell-based; details: naringin 100 μM pre-treatment 1 hour, oxLDL 50 μg/mL 3 hours
Experimental: (§2) Cell Culture and Treatment: THP-1 cells (from American Type Culture Collection, Manassas, Virginia) were cultured in RPMI 1640. They were pre-treated with naringin (Sigma, 91842; 100 μM) for 1 hour, followed by cultivation in serum-free medium containing oxLDL and oxHDL (50 μg/mL) for 3 hours. The culture condition was maintained at 37° C. and with 5% CO2.

THP-1 cells [3] = assay: IL-1β release in THP-1 cells; type: cell-based; details: naringin 100 μM pre-treatment 1 hour
Experimental: as §2
Measurement of IL-1β: IL-1β was measured using a commercially available IL-1β assay kit according to the manufacturer's instructions.

[4] = tested on: oxidized low-density lipoprotein (oxLDL); assay: drug screening among 200 natural products for neutralizing oxLp: affinity and surface charge, oxLDL; type: binding
From the text: as §1

THP-1 cells [5] = assay: intracellular cholesterol accumulation in THP-1 cells; type: cell-based; details: naringin 100 μM pre-treatment 1 hour
Experimental: as §2
Measurement of Intracellular Cholesterol: Intracellular cholesterol was determined using a commercially available intracellular cholesterol assay kit according to the manufacturer's instructions.

oxHDL-NLRP3 complexes = assay: formation of oxHDL-NLRP3 complexes in THP-1 cells (fluorescence imaging); type: cell-based; details: naringin 100 μM pre-treatment 1 hour, oxHDL 50 μg/mL 3 hours
Experimental: as §2

C[C@@H]1O[C@@H](O[C@H]2[C@H](Oc3cc(O)c4c(c3)O[C@H](c3ccc(O)cc3)CC4=O)O[C@H](CO)[C@@H](O)[C@@H]2O)[C@H](O)[C@H](O)[C@H]1O [naringin]
lipid accumulation in the aortic roots [1]: alleviated lipid accumulation | lipid accumulation in the carotid arteries [1]: alleviated lipid accumulation | lipid accumulation in the livers [1]: alleviated lipid accumulation | neutralizing the negative charge on the surface of oxHDL [2]: capable of neutralizing the negative charge | affinity for oxHDL ([2]; drug screening): high affinity | formation of complexes between oxLDL and NLRP3 (oxLDL-NLRP3 complexes): inhibited the formation of complexes | oxHDL-induced IL-1β release (THP-1 cells [3]; oxHDL 50 μg/mL 3 hours): reduced | oxLDL-induced IL-1β release (THP-1 cells [3]; oxLDL 50 μg/mL 3 hours): reduced | neutralizing the negative charge on the surface of oxLDL [4]: capable of neutralizing the negative charge | affinity for oxLDL ([4]; drug screening): high affinity | oxHDL-induced cholesterol accumulation (THP-1 cells [5]; oxHDL 50 μg/mL 3 hours): reduced | oxLDL-induced cholesterol accumulation (THP-1 cells [5]; oxLDL 50 μg/mL 3 hours): reduced | formation of complexes between oxHDL and NLRP3 (oxHDL-NLRP3 complexes): inhibited the formation of complexes
